Converted amounts (≈) assume the structure as drawn.
Key:
Trichoderma viride = assay: Antifungal activity against Trichoderma viride IAM 5061 assessed as growth inhibition after 72 hrs at 28 degC by serial dilution method; assay type: functional; settings: for MIC: Trichoderma viride, IAM 5061, 72 h
Escherichia coli = assay: Antibacterial activity against Escherichia coli ATCC 35210 assessed as growth inhibition after 24 hrs at 37 degC by iodonitrotetrazolium chloride staining based microdilution broth assay; assay type: functional; settings: ATCC 35210, 24 h
Micrococcus flavus = assay: Antibacterial activity against Micrococcus flavus ATCC 10240 assessed as growth inhibition after 24 hrs at 37 degC by iodonitrotetrazolium chloride staining based microdilution broth assay; assay type: functional; settings: ATCC 10240, 24 h
Penicillium ochrochloron = assay: Antifungal activity against Penicillium ochrochloron ATCC 9112 assessed as growth inhibition after 72 hrs at 28 degC by serial dilution method; assay type: functional; settings: for MIC: Penicillium ochrochloron, ATCC 9112, 72 h
Aspergillus versicolor = assay: Antifungal activity against Aspergillus versicolor ATCC 11730 assessed as growth inhibition after 72 hrs at 28 degC by serial dilution method; assay type: functional; settings: for MIC: Aspergillus versicolor, ATCC 11730, 72 h
[1] = target: Human immunodeficiency virus type 1 reverse transcriptase (Human immunodeficiency virus 1) (UniProt Q72547); assay: Inhibition of HIV1 reverse transcriptase assessed as residual enzyme activity by measuring reduction in [3H]dTTP incorporation into poly(rA)-oligo(dT) at 4 uM incubated for 15 mins by scintillation counting method relative to control
Aspergillus fumigatus = assay: Antifungal activity against Aspergillus fumigatus ATCC 1022 assessed as growth inhibition after 72 hrs at 28 degC by serial dilution method; assay type: functional; settings: for MIC: Aspergillus fumigatus, ATCC 1022, 72 h
Pseudomonas aeruginosa = assay: Antibacterial activity against Pseudomonas aeruginosa ATCC 27853 assessed as growth inhibition after 24 hrs at 37 degC by iodonitrotetrazolium chloride staining based microdilution broth assay; assay type: functional; settings: ATCC 27853, 24 h
Enterobacter cloacae = assay: Antibacterial activity against human isolate of Enterobacter cloacae assessed as growth inhibition after 24 hrs at 37 degC by iodonitrotetrazolium chloride staining based microdilution broth assay; assay type: functional
Candida albicans = assay: Antifungal activity against Candida albicans ATCC 10231 assessed as growth inhibition after 72 hrs at 28 degC by serial dilution method; assay type: functional; settings: for MIC: Candida albicans, ATCC 10231, 72 h
Listeria monocytogenes = assay: Antibacterial activity against Listeria monocytogenes NCTC 7973 assessed as growth inhibition after 24 hrs at 37 degC by iodonitrotetrazolium chloride staining based microdilution broth assay; assay type: functional; settings: NCTC 7973, 24 h
Bacillus cereus = assay: Antibacterial activity against clinical isolates of Bacillus cereus assessed as growth inhibition after 24 hrs at 37 degC by iodonitrotetrazolium chloride staining based microdilution broth assay; assay type: functional
Salmonella typhimurium = assay: Antibacterial activity against Salmonella typhimurium ATCC 13311 assessed as growth inhibition after 24 hrs at 37 degC by iodonitrotetrazolium chloride staining based microdilution broth assay; assay type: functional, Salmonella enterica subsp. enterica serovar Typhimurium; settings: Salmonella enterica, ATCC 13311, 24 h
Staphylococcus aureus = assay: Antibacterial activity against Staphylococcus aureus ATCC 6538 assessed as growth inhibition after 24 hrs at 37 degC by iodonitrotetrazolium chloride staining based microdilution broth assay; assay type: functional; settings: ATCC 6538, 24 h
Aspergillus niger = assay: Antifungal activity against Aspergillus niger ATCC 6275 assessed as growth inhibition after 72 hrs at 28 degC by serial dilution method; assay type: functional; settings: for MIC: Aspergillus niger, ATCC 6275, 72 h
Talaromyces funiculosus = assay: Antifungal activity against Penicillium funiculosum ATCC 36839 assessed as growth inhibition after 72 hrs at 28 degC by serial dilution method; assay type: functional; settings: for MIC: Talaromyces funiculosus, ATCC 36839, 72 h
Aspergillus ochraceus = assay: Antifungal activity against Aspergillus ochraceus ATCC 12066 assessed as growth inhibition after 72 hrs at 28 degC by serial dilution method; assay type: functional; settings: for MIC: Aspergillus ochraceus, ATCC 12066, 72 h

SMILES	MFC99.5 (Trichoderma viride)	MIC (Trichoderma viride)	MBC (Escherichia coli)	MIC (Escherichia coli)	MBC (Micrococcus flavus)	MIC (Micrococcus flavus)	MFC99.5 (Penicillium ochrochloron)	MIC (Penicillium ochrochloron)	MFC99.5 (Aspergillus versicolor)	MIC (Aspergillus versicolor)	Activity [1]	MFC99.5 (Aspergillus fumigatus)	MIC (Aspergillus fumigatus)	MBC (Pseudomonas aeruginosa)	MIC (Pseudomonas aeruginosa)	MBC (Enterobacter cloacae)	MIC (Enterobacter cloacae)	MFC99.5 (Candida albicans)	MIC (Candida albicans)	MBC (Listeria monocytogenes)	other results
O=C1CSC(c2cccc(F)c2)N1c1nc(C23CC4CC(CC(C4)C2)C3)cs1 (stereo unspecified)	0.14 ×10⁻² umol/ml	1.2 µM (≈ 0.497 µg/mL)	125 µM (≈ 51.8 µg/mL)	15.3 µM (≈ 6.34 µg/mL)	61.2 µM (≈ 25.4 µg/mL)	30.6 µM (≈ 12.7 µg/mL)	0.14 ×10⁻² umol/ml	0.4 µM (≈ 0.166 µg/mL)	0.14 ×10⁻² umol/ml	0.4 µM (≈ 0.166 µg/mL)	100%	0.14 ×10⁻² umol/ml	0.8 µM (≈ 0.332 µg/mL)	15.3 µM (≈ 6.34 µg/mL)	9 µM (≈ 3.73 µg/mL)	125 µM (≈ 51.8 µg/mL)	30.6 µM (≈ 12.7 µg/mL)	0.14 ×10⁻² umol/ml	0.8 µM (≈ 0.332 µg/mL)	125 µM (≈ 51.8 µg/mL)	MIC (Listeria monocytogenes): 15.3 µM (≈ 6.34 µg/mL); MBC (Bacillus cereus): 500 µM (≈ 207 µg/mL); MIC (Bacillus cereus): 300 µM (≈ 124 µg/mL); MBC (Salmonella typhimurium): 15.3 µM (≈ 6.34 µg/mL); MIC (Salmonella typhimurium): 9 µM (≈ 3.73 µg/mL); MBC (Staphylococcus aureus): 500 µM (≈ 207 µg/mL); MIC (Staphylococcus aureus): 300 µM (≈ 124 µg/mL); MFC99.5 (Aspergillus niger): 0.14 ×10⁻² umol/ml; MIC (Aspergillus niger): 0.8 µM (≈ 0.332 µg/mL); MFC99.5 (Talaromyces funiculosus): 0.14 ×10⁻² umol/ml; MIC (Talaromyces funiculosus): 0.8 µM (≈ 0.332 µg/mL); MFC99.5 (Aspergillus ochraceus): 0.14 ×10⁻² umol/ml; MIC (Aspergillus ochraceus): 0.4 µM (≈ 0.166 µg/mL)
O=C1CSC(c2cccc(Cl)c2Cl)N1c1nc(C23CC4CC(CC(C4)C2)C3)cs1 (stereo unspecified)	0.06 ×10⁻² umol/ml	0.21 µM (≈ 0.0977 µg/mL)	125 µM (≈ 58.2 µg/mL)	62.5 µM (≈ 29.1 µg/mL)	62.5 µM (≈ 29.1 µg/mL)	30.6 µM (≈ 14.2 µg/mL)	0.06 ×10⁻² umol/ml	0.21 µM (≈ 0.0977 µg/mL)	0.06 ×10⁻² umol/ml	0.21 µM (≈ 0.0977 µg/mL)	100%	0.06 ×10⁻² umol/ml	0.42 µM (≈ 0.195 µg/mL)	62.5 µM (≈ 29.1 µg/mL)	15.3 µM (≈ 7.12 µg/mL)	62.5 µM (≈ 29.1 µg/mL)	30.6 µM (≈ 14.2 µg/mL)	1.075 ×10⁻² umol/ml	5.3 µM (≈ 2.47 µg/mL)	125 µM (≈ 58.2 µg/mL)	MIC (Listeria monocytogenes): 62.5 µM (≈ 29.1 µg/mL); MBC (Bacillus cereus): 62.5 µM (≈ 29.1 µg/mL); MIC (Bacillus cereus): 30.6 µM (≈ 14.2 µg/mL); MBC (Salmonella typhimurium): 62.5 µM (≈ 29.1 µg/mL); MIC (Salmonella typhimurium): 15.3 µM (≈ 7.12 µg/mL); MBC (Staphylococcus aureus): 15.3 µM (≈ 7.12 µg/mL); MIC (Staphylococcus aureus): 9 µM (≈ 4.19 µg/mL); MFC99.5 (Aspergillus niger): 0.06 ×10⁻² umol/ml; MIC (Aspergillus niger): 0.21 µM (≈ 0.0977 µg/mL); MFC99.5 (Talaromyces funiculosus): 0.06 ×10⁻² umol/ml; MIC (Talaromyces funiculosus): 0.42 µM (≈ 0.195 µg/mL); MFC99.5 (Aspergillus ochraceus): 0.06 ×10⁻² umol/ml; MIC (Aspergillus ochraceus): 0.42 µM (≈ 0.195 µg/mL)

Reference: ChEMBL document CHEMBL3734713, “4-Thiazolidinone derivatives as potent antimicrobial agents: microwave-assisted synthesis, biological evaluation and docking studies” (2015)
